Laboratory results published in patent US6143737A, “Progesterone analogs to reverse multidrug resistance” (priority 1996, dated 2000).

Columns and labels:
sensitive parental cells = test: Effect in sensitive (parental) control cells: VBL accumulation and resistance reversal; assay type: cell-based, human
Source text: We then determined the relative potency for increasing [^3 H] VBL accumulation in control (parental) and resistant cells (MCF-7^ADR) and/or MDR1 transduced in comparison with progesterone and verapamil. […]. […] […].
(§1) The ability of compound 4 to reverse both [^3 H]

MCF-7^ADR cells [1] = test system: MCF-7^ADR cells
Protocol: (§2) The growth inhibition experiments, i.e., anchorage dependent and independent assays, are designed to allow evaluation of drug interactions by isobologram analysis. Thus, they include a full definition of the dose-response curves relative to the single agents (untreated and up to 8 drug concentrations), all combinations of 5 concentrations of the modulating agent (e.g., C7 analogue) and up to 9 concentrations of the target agent. […] Briefly, cell monolayers are treated with the appropriate drugs, reversing agents and vehicle(s), the monolayers washed 3 times with growth media, gently trypsinized, and suspended in 1.5 ml growth medium containing 0.6% (w/v) agar at 41° C. […] This agar solution is placed over a solid bottom agar layer and incubated for 10 days at 37° C. Dishes are refed with 500 μl of growth medium on days 3 and 6. Colonies of 50 cells or more (~60 μm diameter) are counted using an Omnicron electronic colony counter. Statistical analyses of colony forming ability will be performed using ANOVA.
(§3) Dose-response curves of the cytotoxic drug are obtained in the absence and presence of the chemosensitizer. The curves are corrected by dividing the observed survival values by the fractional survival to the chemosensitizer alone (where present in the combination), and IC50 values obtained by interpolation on the corrected curves. The activity of the chemosensitizer will be quantified as FS=IC50 (-)/IC50 (+), where FS=Fold Sensitization, and IC50 (-) and IC50 (+) are the cytotoxic drug IC50 s respectively in the absence and presence of the chemosensitizer.

MDA435/LCC6^MDR1 cells = conditions: 1 μM compound 4
Protocol: as §2, §3

[2] = assay type: in vitro ADME
Source text: (§4) Information on drug stability in serum also may be indirectly assessed by comparing effects on [^3 H] VBL accumulation with cytotoxicity (reversing) assays using a continuous exposure. For example, Thimmaiah, K. N. et al. (J. Med. Chem. 35:3358-3364 (1992)) reported that some phenoxazine analogues increased [^3 H] VBL accumulation but were ineffective at reversing VBL cytotoxicity. […] VBL accumulation and reversing PGP-mediated resistance.
as §1

[3] = test system: MCF-7^ADR cells and cells transfected with the MDR gene (CL 10.3); assay type: cell-based, human
Protocol: (§5) While many PGP-reversing agents have been studied, the majority are maximally active in vitro at concentrations≥10 μM. It is widely acknowledged that, for many of these compounds, it is impossible to achieve this level in the sera of patients without inducing severe dose limiting toxicities (Miller, T. P. et al., J. Clin. Oncol. 9:17-24 (1991); Murren & Hait, Oncology Res. 1:1-6 (1992); Dalton, W. D. et al., J. Clin. Oncol. 7:415-424 (1989); Miller, R. L. et al., J. Clin Oncol. 6:880-888 (1988)). Our compounds were evaluated in vitro using concentrations likely to be pharmacologically relevant. […] To determine potency relative to verapamil, we compared the equieffective concentrations. […]. Oncol. 9:17-24 (1991); Dalton, W. D. et al., J. Clin. Oncol. 7:415-424 (1989)). Similar serum levels of progestagens are achieved in patients receiving standard dosing, e.g. megesterol acetate (0.7 μM) (Lundgren & Lonning, J. Steroid. Biochem. 36:105-109 (1990)).
(§6) We then determined the relative potency for increasing [^3 H] VBL accumulation in control (parental) and resistant cells (MCF-7^ADR) and/or MDR1 transduced in comparison with progesterone and verapamil. […]. […]

PGP-resistant cells = test: PGP-mediated resistance reversal (VBL cytotoxicity, continuous exposure); assay type: cell-based; conditions: preliminary data
Source text: as §4

CL 10.3 cells = test: [^3 H] VBL accumulation in MDR1-transduced CL 10.3 cells; assay type: cell-based, human
Protocol: While many PGP-reversing agents have been studied, the majority are maximally active in vitro at concentrations≥10 μM. […] Our compounds were evaluated in vitro using concentrations likely to be pharmacologically relevant. […] To determine potency relative to verapamil, we compared the equieffective concentrations. […] Oncol.
We then determined the relative potency for increasing [^3 H] VBL accumulation in control (parental) and resistant cells (MCF-7^ADR) and/or MDR1 transduced in comparison with progesterone and verapamil.

MCF-7^ADR cells [4] = test: [^3 H] VBL accumulation in MCF-7^ADR cells; assay type: cell-based, human
Protocol: 5:231-243 (1985)) and provide sufficient free TAM levels in the ER-positive cells.
as §5, §6

[5] = MCF-7^ADR and MDR-transfected cells, up to

CC(=O)C1CCC2C3C(Sc4ccc(NC(=O)NCCc5ccccc5)cc4)CC4=CC(=O)CCC4(C)C3CCC12C (stereo not shown) [Compound 4]
specificity for PGP (sensitive parental cells; PGP-resistant vs sensitive parental cells): specific for PGP | activity in sensitive control cell populations (sensitive parental cells; sensitive control / parental cells): not in sensitive control cell populations | fold sensitization to VBL at VBL's IC50 (MCF-7^ADR cells [1]; 1 μM compound 4, MCF-7^ADR): up to 9 fold | residual VBL resistance (MCF-7^ADR cells [1]; MCF-7^ADR, 1 μM compound 4, from an initial 32-fold): 3.8 fold | potency relative to progesterone in increasing VBL cytotoxicity (MCF-7^ADR cells [1]; human): approximately 23 fold | potency relative to verapamil in increasing VBL cytotoxicity (MCF-7^ADR cells [1]; human): approximately 6 fold | fold sensitization to VBL at VBL's IC50 (MDA435/LCC6^MDR1 cells; transduced MDA435/LLC6 cells): 20 fold | residual VBL resistance (MDA435/LCC6^MDR1 cells; MDA435/LCC6MDR1, from an initial 49-fold): 2.4 fold | stability in vitro [2]: stable in vitro | maximal increase in intercellular VBL relative to verapamil [3]: equivalent to that achievable with verapamil | potency relative to progesterone (fold more potent) [3, 5]: up to 35 fold | potency relative to verapamil, equal-molar basis (ratio of ED50 s) [3, 5]: up to 6 fold | potency relative to verapamil in vitro (VBL accumulation and cytotoxicity) ([3]; human): ≥ 6 fold | effectiveness among the novel C7 analogs ([3]; preliminary analyses): more effective of the novel C7 analogs | increasing [^3 H] VBL accumulation ([3]; preliminary data): highly potent | potency in increasing [^3 H] VBL accumulation relative to the lead compound (progesterone) ([3]; up to): up to 35 fold | potency in increasing [^3 H] VBL accumulation relative to verapamil ([3]; up to): up to 7 fold | reversing PGP-mediated resistance (PGP-resistant cells): highly potent | concentration equieffective with the ED50 of verapamil for increasing intracellular VBL: fold lower than progesterone (CL 10.3 cells): 30 fold | concentration equieffective with the ED50 of verapamil for increasing intracellular VBL: fold lower than verapamil (CL 10.3 cells): 7 fold | concentration equieffective with the ED50 of verapamil for increasing intracellular VBL: fold lower than progesterone (MCF-7^ADR cells [4]): 35 fold | concentration equieffective with the ED50 of verapamil for increasing intracellular VBL: fold lower than verapamil (MCF-7^ADR cells [4]): 5 fold
